Like-named read-outs stand apart in the source and are kept apart here.
System: Sprague-Dawley rats
Experiment: Open field test for locomotor activity
Type: in vivo, Rattus norvegicus
Settings: for Emax: Rattus norvegicus; for Habituation, distance, CED / Habituation, distance, CED-L / Habituation, time, CED / Habituation, time, CED-L / Percent distance in inner zone, day 24, CED / Percent distance in inner zone, day 24, CED-L / Percent time in inner zone, day 24, CED / Percent time in inner zone, day 24, CED-L: total dose based
Protocol: During the last 5 days of the study (days 24–28), rats were tested for locomotor activity in an octagonal open field (diameter 75 cm). The behavior was recorded on videotapes and automatically evaluated with a program for behavioral analyses (Ethovision, Noldus, NL). Each rat was tested for 5 min on each of the 5 days to allow the examination of habituation. Sequence of the rats to be tested was varied according to a permutation scheme to exclude a systematic influence of daytime on the outcome. For analyses, the area of the open field was divided in an inner zone (diameter 50 cm) and an outer ring (width 12.5 cm). Total distance moved during the recording period, distance moved in the inner zone of the open field, distance moved in outer zone, time in inner zone, and time in outer zone were extracted as parameters from the recordings.
Data were also analyzed using the BMD method, which is based on dose-response modeling of the full data set using a nested family of exponential and Hill models. The analyses were done on data of males and females combined, using sex as a covariate. […] In that case, different Critical Effect Doses (CEDs) and CEDs at the lowest bound of the confidence interval (CED-L) were generated for each sex. If no difference between sexes is detected, a CED and CED-Ls for the combined data is generated. However, this was also done if the curve fits are close, and separate analyses for males and females were then performed manually. CEDs and CED-Ls were calculated at the predefined Critical Effect Size (CES) of 5% (EFSA standard) or 10%.

[1] = F, CES 5%, model E2, adipose tissue concentration based
[2] = F, CES 5%, model E4, adipose tissue concentration based
[3] = F, CES 10%, model E2, adipose tissue concentration based
[4] = F, CES 10%, model E4, adipose tissue concentration based
[5] = females, CES 5%, adipose tissue concentration based
[6] = females, adipose tissue concentration based

Compound: Clc1cc(Cl)c(-c2cc(Cl)c(Cl)c(Cl)c2Cl)cc1Cl [PCB 180, 2,2′,3′,4,4′,5,5′-heptachlorobiphenyl]
- CED, Habituation, distance [1]: 1340 µg/g lipid
- CED, Habituation, time [1]: 1130 µg/g lipid
- CED-L, Habituation, distance [1]: 865 µg/g lipid
- CED-L, Habituation, time [1]: 739 µg/g lipid
- CED, Percent distance in inner zone, day 24 [2]: 4.12 µg/g lipid
- CED, Percent time in inner zone, day 24 [2]: 1.55 µg/g lipid
- CED-L, Percent distance in inner zone, day 24 [2]: 1.16 µg/g lipid
- CED-L, Percent time in inner zone, day 24 [2]: 0.525 µg/g lipid
- CED, Habituation, distance [3]: 2740 µg/g lipid
- CED, Habituation, time [3]: 2320 µg/g lipid
- CED-L, Habituation, distance [3]: 1777 µg/g lipid
- CED-L, Habituation, time [3]: 1518 µg/g lipid
- CED, Percent distance in inner zone, day 24 [4]: 8.69 µg/g lipid
- CED, Percent time in inner zone, day 24 [4]: 3.17 µg/g lipid
- CED-L, Percent distance in inner zone, day 24 [4]: 2.423 µg/g lipid
- CED-L, Percent time in inner zone, day 24 [4]: 1.07 µg/g lipid
- Emax (576 h, F, model E4, controls vs high dose according to the fitted model, read-out: Maximum response, Percent distance in inner zone, day 24): 53%
- Emax (576 h, F, model E4, controls vs high dose according to the fitted model, read-out: Maximum response, Percent time in inner zone, day 24): 111%
- Emax (576 h, females, controls vs high dose, fitted model, read-out: Percent distance in inner zone, day 24, Maximum response): 53%
- Emax (576 h, females, controls vs high dose, fitted model, read-out: Percent time in inner zone, day 24, Maximum response): 107%
- Emax (F, model E2, controls vs high dose according to the fitted model, read-out: Maximum response, Habituation, distance): -35.2%
- Emax (F, model E2, controls vs high dose according to the fitted model, read-out: Maximum response, Habituation, time): -40.1%
- Emax (females, controls vs high dose, fitted model, read-out: Habituation, distance, Maximum response): -33.2%
- Emax (females, controls vs high dose, fitted model, read-out: Habituation, time, Maximum response): -37.7%
- Percentage of distance moved in inner zone, day 24, CED [5]: 4.12 µg/g lipid
- Percentage of time in inner zone, day 24, CED [5]: 1.55 µg/g lipid
- Habituation, distance, CED (females, CES 5%): 216 mg/kg bw
- Habituation, distance, CED-L (females, CES 5%): 138 mg/kg bw
- Habituation, time, CED (females, CES 5%): 184 mg/kg bw
- Habituation, time, CED-L (females, CES 5%): 118 mg/kg bw
- Percent distance in inner zone, day 24, CED (females, CES 5%): 0.87 mg/kg bw
- Percent distance in inner zone, day 24, CED-L (females, CES 5%): 0.25 mg/kg bw
- Percent time in inner zone, day 24, CED (females, CES 5%): 0.35 mg/kg bw
- Percent time in inner zone, day 24, CED-L (females, CES 5%): 0.11 mg/kg bw
- Habituation, distance, CED (females, CES 10%): 444 mg/kg bw
- Habituation, distance, CED-L (females, CES 10%): 283 mg/kg bw
- Habituation, time, CED (females, CES 10%): 378 mg/kg bw
- Habituation, time, CED-L (females, CES 10%): 243 mg/kg bw
- Percent distance in inner zone, day 24, CED (females, CES 10%): 1.84 mg/kg bw
- Percent distance in inner zone, day 24, CED-L (females, CES 10%): 0.53 mg/kg bw
- Percent time in inner zone, day 24, CED (females, CES 10%): 0.71 mg/kg bw
- Percent time in inner zone, day 24, CED-L (females, CES 10%): 0.23 mg/kg bw
- Habituation, percentage of distance moved, CED [6]: 1340 µg/g lipid
- Habituation, time in inner zone, CED [6]: 1130 µg/g lipid
- Spontanous locomotor activity, CED-L [6]: 525 ng/g lipid
- Altered open field behavior, CED-L (females, critical effect for risk characterization): 0.525 µg/g lipid
- Open field behavior, dose-response relations (males): No significant dose-response relations
